Experimental data published in patent publication US5173403A, “Thermostable acid protease from sulfolobus acidocaldarius and gene” (Oklahoma Medical Research Foundation, priority 1990, dated 1992).
Where “and” joins values, the source holds several entries; their conditions need not be identical. Equal entries are not always repeated. Entries after “also recorded” stand apart in the source; their conditions may differ. Where two headings read alike, the source gives them in different places. Numbered stars: 1 amine (or outer) side, 2 acyl side, 3 side chain; on linkers, the order of the positions; unused ones are H or OH. Square brackets hold non-standard residues; d marks the D form. Peptide text beside a SMILES is read from it. * marks the point of attachment. Sta = CC(C)C[C@H](N)[C@@H](O)CC(=O)O; Isovaleryl = CC(C)CC(=O)*; CO = O=C([*:1])[*:2]

Biological target: T1, thermopsin, thermostable acid protease purified from Sulfolobus acidocaldarius culture medium (Sulfolobus acidocaldarius, UniProt P17118)
T1 construct: There are 41 amino acids in front of the NH2 -terminal position of thermopsin including the initiation methionine; made in house; host or cells: native enzyme purified from Sulfolobus acidocaldarius culture medium (not recombinant)
T1 sequence (P17118 42-340): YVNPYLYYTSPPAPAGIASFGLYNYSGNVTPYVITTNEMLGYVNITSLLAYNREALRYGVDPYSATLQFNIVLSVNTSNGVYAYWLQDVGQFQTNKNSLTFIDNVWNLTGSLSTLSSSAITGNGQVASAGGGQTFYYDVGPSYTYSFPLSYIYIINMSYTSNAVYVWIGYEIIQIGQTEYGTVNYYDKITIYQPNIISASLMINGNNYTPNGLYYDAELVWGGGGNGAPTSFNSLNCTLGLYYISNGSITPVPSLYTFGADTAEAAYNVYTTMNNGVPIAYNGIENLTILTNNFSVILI
Test: Effects of proteinase inhibitors on thermopsin (preincubation with inhibitor, then 14C-hemoglobin proteolytic assay)
Format: biochemical
Details: for remaining activity at 10 µM: 0.01 mM inhibitor in preincubation (pH 6.0, 37° C., 5 min); for remaining activity at 20 µM: 0.02 mM inhibitor in preincubation (pH 6.0, 37° C., 5 min)
Procedure: Proteolytic activity is routinely assayed using ^14 C-methylated bovine hemoglobin as substrate, as prepared according to the method of Lin, et al., J. Biol. Chem. 264,4482-4489 (1989). The assay mixture, containing 0.51% hemoglobin substrate and thermopsin in 0.1 ml of 0.1M sodium formate, pH 3.2, is placed in an Eppendorf tube. After incubation at 80° C. for a period of time between 5 to 30 min, depending on the level of activity of thermopsin used, an aliquot of 0.1 ml of 10% trichloracetic acid is added to stop the reaction and precipitate the protein. After removal of the precipitate by centrifugation, the radioactivity of an aliquot of the clear supernate is determined in a scintillation counter.
The effect of various protease inhibitors on the activity of thermopsin was tested.
Thermopsin is preincubated with the indicated level of inhibitor in 0.1 M
phosphate buffer, pH 6.0, containing 1 mM EDTA and DTT at 37° C.
for 5 min. Sodium formate (pH 3.2) and ^14 CHemoglobin is then added
to a concentration as described above. The enzyme assay is then carried
out at 80° C. for 15 min. Enzyme activity is expressed as percent

[1] = concentration not given, see Table II
[2] = assay pH 3.2, 80° C., 15 min, percent of control, read-out: Enzyme Activity (%)

For `CCN1C(=O)C=CC1=O` [N-ethylmaleimide], the remaining activity at 100 µM (0.1 mM inhibitor in preincubation (pH 6.0, 37° C., 5 min), assay pH 3.2, 80° C., 15 min, percent of control, read-out: Enzyme Activity (%)) was 95% and the “effect of inhibitor on thermopsin activity (in words)” value (“effect of inhibitor” below) [1] was “little effect”.

`CC(=O)N[C@@H](CC(C)C)C(=O)N[C@@H](CC(C)C)C(=O)N[C@H](C=O)CCCNC(=N)N` [Leupeptin, leupeptin] showed a remaining activity at 4 µM (0.004 mM inhibitor in preincubation (pH 6.0, 37° C., 5 min), assay pH 3.2, 80° C., 15 min, percent of control, read-out: Enzyme Activity (%)) of 93%.

In the case of `O=S(=O)(F)Cc1ccccc1` [PMSF, phenylmethylsulfonyl fluoride], the “Enzyme Activity (%)” value (2 mM inhibitor in preincubation (pH 6.0, 37° C., 5 min), assay pH 3.2, 80° C., 15 min, percent of control) is reported as 28% and the “effect of inhibitor” value [1] is reported as “significantly inactivate; also recorded: significant inhibition”.

With `CC(C)CC(=O)N[C@H](C(=O)N[C@H](C(=O)N[C@@H](CC(C)C)[C@@H](O)CC(=O)N[C@@H](C)C(=O)N[C@@H](CC(C)C)[C@@H](O)CC(=O)O)C(C)C)C(C)C` [Pepstatin, pepstatin] (Isovaleryl-VV[Sta]A[Sta]-OH) the remaining activity at 0.5 µM (0.5 μM inhibitor in preincubation (pH 6.0, 37° C., 5 min), assay pH 3.2, 80° C., 15 min, percent of control, read-out: Enzyme Activity (%)) was 50%, the remaining activity at 5 µM (5 μM inhibitor in preincubation (pH 6.0, 37° C., 5 min), assay pH 3.2, 80° C., 15 min, percent of control, read-out: Enzyme Activity (%)) was 16% and the “effect of inhibitor” value [1] was “strongly inhibited”. For the same compound, the IC50 (thermopsin proteolytic activity, hemoglobin substrate, read-out: inhibitor concentration giving 50% inhibition of enzyme activity) was ~500 nM and 500 nM.

`O=C(O)CN(CCN(CC(=O)O)CC(=O)O)CC(=O)O` [EDTA] was tested, and the “effect of inhibitor” value was “little effect” and the remaining activity at 1000 µM (read-out: Enzyme Activity (%)) was 100%.

For `Cc1ccc(S(=O)(=O)N[C@@H](CCCCN)C(=O)CCl)cc1` [TLCK, N-p-Tosyl-1-lysine chloromethyl ketone], the remaining activity at 10 µM [2] was 78% and the “effect of inhibitor” value [1] was “much less effective”.

In the case of `Cc1ccc(S(=O)(=O)N[C@@H](Cc2ccccc2)C(=O)CCl)cc1` [TPCK, N-Tosyl-L-phenylalanine chloromethyl ketone], the remaining activity at 10 µM [2] is reported as 14% and the “effect of inhibitor” value [1] is reported as “significantly inactivate; also recorded: significant inhibition”.

Work on `CC(C)C[C@H](NC(=O)N[C@H](C(=O)N[C@@H](CCC(N)=O)C(=O)N[C@@H](C)C=O)[C@@H]1CCNC(=N)N1)C(=O)O` [Elastatinal, elastatinal] yielded a remaining activity at 20 µM [2] of 70%.

In the case of `CCCCC(NC(=O)C=[N+]=[N-])C(=O)OC` (racemic) [DAN, diazoacetyl-DL-norleucinemethlyester], the remaining activity at 12000 µM (12 mM inhibitor in preincubation (pH 6.0, 37° C., 5 min), assay pH 3.2, 80° C., 15 min, percent of control, read-out: Enzyme Activity (%)) is reported as 100% and the “effect of inhibitor” value [1] is reported as “not inactivated; also recorded: no effect”.

In the case of `CC(C)[C@H](NC(=O)[C@H](CCCNC(=N)N)NC(=O)N[C@@H](Cc1ccccc1)C(=O)O)C(=O)N[C@H](C=O)CCCNC(=N)N` [Antipain, antipain] ({Phe-CO}-Arg-Val-Arg-aldehyde), the remaining activity at 20 µM [2] is reported as 25% and the “effect of inhibitor” value [1] is reported as “inhibited; also recorded: significant inhibition”.

`O=C(O)CI` [Iodoacetic Acid, iodoacetic acid] was tested, and the “effect of inhibitor” value was “little effect” and the remaining activity at 100 µM (read-out: Enzyme Activity (%)) was 74%.
